Test results: ChEMBL document CHEMBL1201862, “PubChem BioAssay data set” (2004)
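Dose response: 5 concentrations. Exposure: 48 h. Format: 96-well plates. Endpoint: linear interpolation; highest concentration if not reached. Here, GI50 denotes the concentration required for 50% inhibition of growth.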 Activity calls are given as the source filed them. Cut-off read from the data, not from the text of the source: active = GI50 up to about 1.1 µM and inactive = higher. Where a SMILES comes first, the peptide text is derived from it. Bridges are numbered along the chain shown (N, C = ends). The star is where a group is joined. Cbz = O=C(OCc1ccccc1)*

Experiments:
Test in all cases: NCI tumour cell line growth inhibition, 48 h
[1] = tested on: A549
[2] = tested on: HCT-15
[3] = tested on: HL-60
[4] = tested on: HOP-62
[5] = tested on: Hs-578T
[6] = tested on: IGROV-1
[7] = tested on: K562
[8] = tested on: M14
[9] = tested on: MDA-MB-231
[10] = tested on: Malme-3M
[11] = tested on: NCI/ADR-RES
[12] = tested on: OVCAR-3
[13] = tested on: OVCAR-4
[14] = tested on: OVCAR-5
[15] = tested on: OVCAR-8
[16] = tested on: SNB-75
[17] = tested on: UACC-62
[18] = tested on: SNB-78

SMILES	GI50 [1]	GI50 [2]	GI50 [3]	GI50 [4]	GI50 [5]	GI50 [6]	GI50 [7]	GI50 [8]	GI50 [9]	GI50 [10]	GI50 [11]	GI50 [12]	GI50 [13]	GI50 [14]	GI50 [15]	GI50 [16]	GI50 [17]	GI50 [18]
CCOC(=O)/C(=C\c1cccc(C)c1)C(C)=O	30 µM (inactive)	15.6 µM	3.98 µM (inactive)	24.5 µM (inactive)	20.7 µM (inactive)	15.4 µM (inactive)	28.4 µM (inactive)	17.4 µM (inactive)	12.4 µM (inactive)	14.1 µM (inactive)	19.6 µM (inactive)	14.5 µM (inactive)	19.2 µM (inactive)	10.9 µM (inactive)	21.6 µM (inactive)	4.94 µM (inactive)	16.5 µM (inactive)	
CCCCC1c2c([nH]c3ccccc23)C2C(=O)N(c3ccc(OC)cc3)C(=O)C2C1CCC (stereo not given)	5.13 µM (inactive)	3.6 µM	2.96 µM (inactive)	3.69 µM (inactive)	1.87 µM (inactive)	4.56 µM (inactive)	3.29 µM (inactive)	3.06 µM (inactive)	2.58 µM (inactive)	4.44 µM (inactive)	2.96 µM (inactive)	3.36 µM (inactive)	4.82 µM (inactive)	> 10 µM (inactive)	2.65 µM (inactive)	2.55 µM (inactive)	2.29 µM (inactive)	
COC(=O)/C=C(C)/C=C\COC1CCCCO1 (stereo not given)	> 100 µM (inactive)	> 100 µM	> 100 µM (inactive)	> 100 µM (inactive)	> 100 µM (inactive)	> 100 µM (inactive)	> 100 µM (inactive)	> 100 µM (inactive)	> 100 µM (inactive)	> 100 µM (inactive)	> 100 µM (inactive)	> 100 µM (inactive)	> 100 µM (inactive)	> 100 µM (inactive)	> 100 µM (inactive)	> 100 µM (inactive)	> 100 µM (inactive)	
COc1cc(/C=N\O)cc(/C=N/O)c1O	> 100 µM (inactive)	> 100 µM	27.7 µM (inactive)	21.9 µM (inactive)	17.6 µM (inactive)	> 100 µM (inactive)	71.9 µM (inactive)	20 µM (inactive)	47.3 µM (inactive)	27.7 µM (inactive)	58.1 µM (inactive)	63 µM (inactive)	> 100 µM (inactive)	44.3 µM (inactive)	37.1 µM (inactive)	80.7 µM (inactive)	68.1 µM (inactive)	
O=C(CSc1nc(=O)c(-c2ccccc2NC(=O)C(F)(F)F)n[nH]1)NC(=O)Nc1ccccc1	> 100 µM (inactive)	> 100 µM		> 100 µM (inactive)		> 100 µM (inactive)	61.4 µM (inactive)	> 100 µM (inactive)		> 100 µM (inactive)		> 100 µM (inactive)		> 100 µM (inactive)	> 100 µM (inactive)	21.3 µM (inactive)	50 µM (inactive)	> 100 µM (inactive)
COC(=O)C1CCCCNC(=O)CCC(NC(=O)OCc2ccccc2)C(=O)N1 (stereo not drawn) (Cbz-Glu-Lys-OMe; lactam 1-2; configuration not given here)	> 100 µM (inactive)	> 100 µM	> 100 µM (inactive)	38.7 µM (inactive)	65.9 µM (inactive)	> 100 µM (inactive)	> 100 µM (inactive)	> 100 µM (inactive)	62.7 µM (inactive)	> 100 µM (inactive)	> 100 µM (inactive)	> 100 µM (inactive)	> 100 µM (inactive)	> 100 µM (inactive)	> 100 µM (inactive)	> 100 µM (inactive)	> 100 µM (inactive)	
c1ccc2c(Cc3c[nH]c4ccccc34)c[nH]c2c1 [ARUNDINE]	20.8 µM (inactive)	23.4 µM	12.5 µM (inactive)	17.7 µM (inactive)	41.3 µM (inactive)	14.7 µM (inactive)	19.6 µM (inactive)	16.6 µM (inactive)	14.3 µM (inactive)	31.3 µM (inactive)	19.1 µM (inactive)	15.7 µM (inactive)	17.8 µM (inactive)	14.2 µM (inactive)	20.5 µM (inactive)	17.4 µM (inactive)	> 100 µM (inactive)	
